Holding throughout (assay type): ADME, organism-based
A short description of series [1]: Blood clearance in rat. The note with it: whole blood.
Series [2] can be described thus: Oral bioavailability in rat. The note with it: in vivo.
Series [3] is described as follows: Volume of distribution in rat. The note with it: in vivo.
Series [4] in a line: Half life in rat. The note with it: in vivo.
Series [5] in a line: Ratio of drug level brain to blood in iv dosed rat after 1 hr. The note with it: read-out: BBR.

The term clearance denotes the volume of plasma or blood freed of the substance per unit of time. High values mean a high capacity for elimination, low ones a low capacity for elimination. A word on the bioavailability: it is the share of a dose that reaches the circulation, judged against a reference dose that is usually intravenous. A word on the Vd: it is the apparent volume that relates the amount in the body to the concentration in plasma or blood. Read a high Vd as wide distribution into tissue. In series [1], `Cc1ncoc1-c1nnc(SCCCN2CCc3cc4nc(CC5CC5)oc4cc3CC2)n1C` gave a clearance of 26 mL/min/kg. Besides, the bioavailability in series [2] amounted to 32%. The Vd in series [3] was 1.7 L/kg.
A word on the half-life: it is how long it takes for the measured level to halve. On to `CCc1nc2cc3c(cc2o1)CCN(CCCSc1nnc(-c2cccc4nc(C)ccc24)n1C)CC3`, for which the clearance in series [1] was 57 mL/min/kg. This compound showed a bioavailability in series [2] of 31%. The Vd in series [3] was 5.1 L/kg. Also, in series [4], the half-life was 1.6 h.
With `CCc1nc2cc3c(cc2o1)CCN(CCCSc1nnc(-c2ccc(C(F)(F)F)cc2)n1C)CC3`, in series [1], the clearance was found to be 48 mL/min/kg. Further, the bioavailability in series [2] turned out to be 17%. The Kp at 1 h in series [5] turned out to be 3.1. In series [3], this compound came in with a Vd of 3.4 L/kg. Also, the half-life in series [4] was 1.1 h.
Taken in the same sequence, the figures for `Cc1ccc2c(-c3nnc(SCCCN4CCc5cc6nc(C)sc6cc5CC4)n3C)cccc2n1` were 34 mL/min/kg, 25%, 4.4, 4.3 L/kg and 2.2 h.
In the same order, the values of `Cc1ccc2c(-c3nnc(SCCCN4CCc5cc6onc(C)c6cc5CC4)n3C)cccc2n1` are 40 mL/min/kg, 22%, 7.7, 3.3 L/kg and 1.3 h.
In turn, `Cc1ncoc1-c1nnc(SCCCN2CCc3cc4nc(C(C)C)oc4cc3CC2)n1C` showed a clearance in series [1] of 152 mL/min/kg.
In turn, `Cc1ccc2c(-c3nnc(SCCCN4CCc5cc6c(cc5CC4)N(S(C)(=O)=O)CCO6)n3C)cccc2n1` returned a clearance in series [1] of 32 mL/min/kg. Moreover, in series [5], the Kp at 1 h turned out to be 0.2. In series [3], this compound came in with a Vd of 2.4 L/kg. The half-life in series [4] was 1.2 h.
On to `CCCc1nc2cc3c(cc2o1)CCN(CCCSc1nnc(-c2cccc4nc(C)ccc24)n1C)CC3`, for which the clearance in series [1] is 62 mL/min/kg. In addition, in series [2], the bioavailability stood at 6%.
In series [1], `Cc1ccc2c(-c3nnc(SCCCN4CCc5cc6c(cc5CC4)C(=O)N(C(C)C)C6)n3C)cccc2n1` had a clearance of 36 mL/min/kg. Besides, the bioavailability in series [2] amounted to 10%. For the same compound, the Kp at 1 h in series [5] is 0.2. In series [3], the Vd worked out at 3.5 L/kg. The same compound showed a half-life in series [4] of 1.5 h.
In series [1], `Cc1ccc2c(-c3nnc(SCCCN4CCc5cc6nc(C(C)C)oc6cc5CC4)n3C)cccc2n1` showed a clearance of 81 mL/min/kg.
In the case of `Cc1ccc2c(-c3nnc(SCCCN4CCc5cc6nc(N7CCCCC7)oc6cc5CC4)n3C)cccc2n1`, the clearance in series [1] stood at 76 mL/min/kg. In addition, the bioavailability in series [2] was found to be 3%. Further, the Kp at 1 h in series [5] is 5.1.
Turning to `Cc1ccc2c(-c3nnc(SCCCN4CCc5cc6nc(C)oc6cc5CC4)n3C)cccc2n1`, the clearance in series [1] was 47 mL/min/kg. The bioavailability in series [2] was 34%. The Kp at 1 h in series [5] was 5.4. In series [3], this compound displayed a Vd of 4.31 L/kg. Moreover, the half-life in series [4] is 1.7 h.
In the case of `Cc1ccc2c(-c3nnc(SCCCN4CCc5cc6nc(C(C)(C)C)oc6cc5CC4)n3C)cccc2n1`, the clearance in series [1] was found to be 137 mL/min/kg.
For `Cc1ccc2c(-c3nnc(SCCCN4CCc5cc6nc(N(C)C)oc6cc5CC4)n3C)cccc2n1`, the clearance in series [1] was 29 mL/min/kg. This compound displayed a bioavailability in series [2] of 45%. In addition, the Kp at 1 h in series [5] worked out at 1.1. This compound also displayed a Vd in series [3] of 2.8 L/kg. In series [4], this compound had a half-life of 1.6 h.
In turn, `Cc1nc2cc3c(cc2o1)CCN(CCCSc1nnc(-c2ccc(C(F)(F)F)cc2)n1C)CC3` came in with a clearance in series [1] of 62 mL/min/kg. Further, the bioavailability in series [2] was found to be 17%. In addition, in series [5], the Kp at 1 h is 2.9. In addition, the Vd in series [3] was 5.4 L/kg. The half-life in series [4] was 1.5 h.
With `Cc1ccc2c(-c3nnc(SCCCN4CCc5cc6nc(CC7CC7)oc6cc5CC4)n3C)cccc2n1`, in series [1], the clearance came to 50 mL/min/kg. In series [2], the bioavailability came out at 25%. In addition, the Vd in series [3] stood at 4.3 L/kg.
In turn, `Cc1ccc2c(-c3nnc(SCCCN4CCc5cc6nc(C(F)(F)F)oc6cc5CC4)n3C)cccc2n1` displayed a clearance in series [1] of 20 mL/min/kg. The same compound registered a bioavailability in series [2] of 31%. Further, the Kp at 1 h in series [5] amounted to 2.8. Besides, the Vd in series [3] is 5 L/kg. The compound further showed a half-life in series [4] of 3.3 h.

The record behind these values is ChEMBL document CHEMBL1142271, “New fused benzazepine as selective D3 receptor antagonists. Synthesis and biological evaluation. Part one: [h]-fused tricyclic systems” (Bioorg Med Chem Lett, 2008).
